Assay results published in patent US11168052B2, “Carbamate derivative compounds, processes for preparing them and their uses” (BIO-PHARM SOLUTIONS CO., LTD., priority 2016, dated 2021).

Experiments:
[1] = tested on: CFA-induced pain model in rats; assay: Antiallodynic activity on Complete Freund's Adjuvant (CFA)-induced inflammatory pain model; type: in vivo, Sprague-Dawley rats; settings: Rattus norvegicus, ip, 50 mg/kg intraperitoneally, von Frey threshold relative to sham, 0.5 hr after administration, read-out: Efficacy of 50 mg/kg(%)
Procedure: Male, Sprague-Dawley rats (210-250 g, Nara Bio, Korea) were habituated for 1 week before surgery and allowed free access to food and water throughout the experimentation. Room temperature and humidity were maintained at 24±2 and 50±10%, respectively.
CFA-induced inflammatory pain was induced by the procedure of Nagakura et al. (2003) and Gregory P. et al. (2010) with minor modifications. CFA (sigma, USA) was injected in the right plantar with a 100 ul volume under gaseous anesthesia with isoflurane. Sham controls were injected with 100 ul of saline, and preparation of the vehicle controls were identical to the group treated with compound, except for administration of vehicles without indentical to the vihecle control group.
Tactile sensitivity (Mechanical allodynia) was evaluated using von Frey monofilaments before and after treatment, and animals were include in the study only if the withdrawal threshold value was less than 4 g. One week after CFA injection, CFA-infused animals, sham-operated animal, and vehicle-operated animals were tested for tactile sensitivity with von Frey monofilaments, with 3 trials for each animal. All Animals were placed in a stainless steel mashe chamber and habituated for 30 min in the test cage. The tactile sensitivity for ipsilateral hind paw was measured using the up-and-down method (Dixon, 1980) with seven von Frey monofilaments (0.4, 1, 2, 4, 6, 8, and 15 g) to 3 trials. The tactile sensitivity test was followed by Dixon's method (Dixon, 1980). The 50% paw withdrawal threshold for each paw was calculated using the following formula: [Xth]log=[vFr]log+ky where [vFr] is the force of the last von Frey used, k=0.2249 which is the average interval (in log units) between the von Frey monofilaments, and y is a value that depends upon the pattern of withdrawal responses (Dixon, 1980).
Antiallodynic effect of compounds was evaluated at the dose of 50 mg/kg (n=4-6), intraperitoneally administrated in a volume of 5 ul/g bw in a vehicle of 30% (v/v) PEG or 20% (v/v) Tween 80. The test was performed peak time of efficacy (0.5 hr) after compound administration.
The relative values compared to the sham (% control) were calculated and shown in Table 5, which show an antiallodynic effect of Compound 1 on CFA-induced pain model in rats.

[2] = tested on: MES (electroshock) seizure in mice; assay: Anti-epilepsy activity, MES test in mouse; type: in vivo, ICR mice; settings: po
Procedure: (§1) In the MES test (Ref., G. Villetti et al. Neuropharmacology 40(2001) 866-878), an electrical stimulus (mice: 50 mA, 60 Hz, 0.2 sec, and rats: 150 mA, 60 Hz, 0.2 sec in the test animal) supplied by an 11A Shocker (IITC Life Science Company) was delivered through corneal electrodes. All mice or rats assigned to any electroshock at peak time were treated with each test compound sample which was dissolved in 20% tween 80 prepared by saline solvent applied orally before the test. […] Three doses of the test sample were administered orally to 9-18 animals (3-6 mice per dose) for evaluating the respective doses at which 50% of the animals were protected from seizure (ED50). The ED50 value (median effective dose) was calculated by Litchfield and Wicoxon log-probit method which is a dose-response relationship. Experimental animals, male ICR mice and male SD rats, were purchased from OrientBio, Samtako, or Nara Biotech, Korea, and housed in cages (4-5 mice or 3 rats per cage) for 4-5 days. The range of mice body weight was between 19 and 25 grams and range of rats body weight was between 100 and 130 grams.

[3] = tested on: MES (electroshock) seizure in rats; assay: Anti-epilepsy activity, MES test in rats; type: in vivo, SD rats; settings: Rattus norvegicus, po
Procedure: as §1

[4] = tested on: PTZ (Pentylenetetrazol)-induced clonic seizure in mice; assay: Anti-epilepsy activity, scPTZ test in mouse; type: in vivo, ICR mice; settings: ip
Excerpt: (§2) In this experiment, each test compound sample was formulated as described in Biological Experimental Example 1, and administered intraperitoneally to the test animals (mice; ICR or Rat; SD); Experimental animals, male ICR mice and male SD rats, were purchased from OrientBio or Nara biotech, Korea, and housed 4-5 mice per a cage for 4-5 days. The range of mice body weight was used between 19 and 26 grams and range of rats body weight was used between 100 and 130 grams. After Peak time (0.5, 1, 2 and 4 hr) from the administration, PTZ (Pentylenetetrazol) was administered subcutaneously in the concentration capable of inducing 97% intermittent convulsions (mice: 100-110 mg/kg?bw, 10 μl/g, or rats: 90-110 mg/kg?bw, 2 μl/g). If clonic seizure was not observed for at least 30 minutes in the PTZ administered animal, it can be considered that the test compound has anti-epilepsy activity. The median effective dose (ED50) is determined using 6 animals per a concentration (total three different concentrations), and calculated by Litchfield and Wicoxon log-probit method which is a dose-response relationship.

[5] = tested on: PTZ (Pentylenetetrazol)-induced clonic seizure in rats; assay: Anti-epilepsy activity, scPTZ test in rats; type: in vivo, SD rats
Excerpt: as §2

[6] = tested on: Lithium-pilocarpine induced seizure in rats; assay: Lithium-pilocarpine induced epilepsy test (LI-PILO), prevention test; type: in vivo, Sprague-Dawley rats; settings: Rattus norvegicus, ip, prevention, read-out: Lithium pilocarpine model (pre) ED50
Procedure: Male Sprague-Dawley rats (purchased from Orient Bio Inc. Korea) of body weight 175 grams were used for these studies and 3 rats per cage were housed for 4-5 days. On the day prior to SE, rats received 127 mg/kg lithium chloride (Sigma, St. Louis, Mo., U.S.A.) intraperitoneally (i.p.). Approximately 18-20 h following this treatment, rats were given an i.p. injection of the concentration capable of inducing 97% intermittent convulsions pilocarpine(Sigma, 30-43 mg/kg). An i.p. injection of 2 mg/kg methyl-scopolamine (Sigma) was administered 30 min prior to pilocarpine to block the effects of the muscarinic agonist on peripheral cholinergic receptors. Test drugs were dissolved in 20% tween80 (Sigma).
The drugs were administered intraperitoneally (i.p.) in a volume of 2 μl/g body weight. Pharmacological effects of all of the test materials were evaluated to compare test groups (n=6) with a control group (n=6). Control group was administered vehicle only. The efficacy was measured 0.5, 1, 2, or 4 hours after the administration of the test material. The time point that the most animals were protected was defined as peak time and the ED50 was determined at peak time. The animals were then transferred to observation cages and observed continuously for 90 min Seizure was elicited in approximately 95% of the control group. Protection was defined as complete absence of seizure grade 3-5 (Racine scale; Racine, 1972) over the 90-min observation period. The effective dose of the compound necessary to protect 50% of the animals against seizures compared to controls (i.e., ED50) was determined by a curve fitting program (Excel 2007, Microsoft).

[7] = tested on: Picrotoxin (PIC)-induced clonic seizure in mice; assay: Chemical induced seizure model (PIC); type: in vivo, ICR mice; settings: mice, dose 50 mg/kg
Procedure: Picrotoxin (PIC) were used to induce the behavioral seizures in the experiments. Male ICR mice (purchased from Orient Bio Inc. Korea) of body weight 19-26 g (mice) were used for these studies. The test materials were administered intraperitoneal (ip) route in a volume of 10 ul/g (mice) weight in rats or mice, respectively. Pharmacological effects of the test materials were evaluated to compared test groups (n=6) with a control group (n=6). Control group was administrated vehicle, only. The peak time was determined by administration of test material's random dose for 0.5, 1, 2, 4 hour. The time that the most protect was defined as a peak time and ED50 was determined by other dose administration at the peak time. Chemical (PIC) was dissolved in 0.9% saline and administered subcutaneously (s.c.) at its CD97 (convulsive dose 97%), the dose of Chemical (PIC) that produced clonic seizures in 97% into a loose fold of skin in the midline of the neck in a volume of 10 ul/g (mice) body weight. The animals were then transferred to observation cages and observed continuously for 45 min. Clonic seizure was elicited in approximately 97% of control group. Protection was defined as a complete absence of clonic seizure over the 45-min observation period. The effective dose of compound necessary to protect against generalized convulsive seizures to 50% of controls (i.e., ED50) was determined by log probit analysis using SPSS software program (SPSS Inc.). (Reference; White H. S., J. H. Woodhead, K. S. Wilcox, J. P. Stables, H. J. Kupferberg, and H. H. Wolf. General Principles; Discovery and Preclinical Development of Antiepileptic Drugs. In: R. H. Levy, R. H. Mattson, B. S. Meldrum, and E. Perucca, eds. Antiepileptic Drugs, 5th Ed. Lippincott Williams & Wilkins, Philadelphia 2002: pp. 36-48.) The obtained results are shown in following Table 10.

ICR mice on hot plate = assay: Hot-plate test; type: in vivo; settings: Mus musculus, po, orally, withdrawal latency
Procedure: To examine the pain relief effect of the carbamate compounds, a hot-plate test was conducted in referring to Current Protocols in Neuroscience; Behavioral Neuroscience Unit 8.9.
(§3) ICR mice (male, 25-28 g; Orient Bio, Korea) were habituated before test (in test room) for 1 hour. Animals were fasted 2 hr before administration of compounds. Compounds were orally administered at the three dose, 10 ul/g, by bodyweight (n=4-6/group). All compounds were dissolved in a vehicle of 30% (v/v) PEG 400 or 20% (v/v) Tween 80. The control group was treated the vehicle without compounds.
0.25-2.0 hr after the administration of compounds, the mice were put on a hot plate pre-heated to 55±1 (Hu, X. et al, 2008), and then, the withdrawal latency time was measured (cut-off time: 30 sec) until the point when each mouse was taking a paw off from the plate, shaking, licking a paw or hind leg, or jumping from the plate.

[8] = tested on: ICR mice, tail-flick analgesia meter; assay: Tail-flick test; type: in vivo; settings: orally, withdrawal latency
Procedure: To examine the pain relief effect of the carbamate compounds, a tail-flick test was conducted, referring to Current Protocols in Neuroscience; Behavioral Neuroscience Unit 8.9.
as §3, with “25-30g;” for “25-28 g;”, “Each of Compound was” for “Compounds were”, “1-3” for “three”
After the administration of compounds, the mice tail were put on a tail-flick analgesia meter. To avoid tissue damage, maximal exposure time to pain stimuli was restricted to 15 s. The withdrawal latency was measured to the time to the point when each mouse responded. The relative values compared to the control (% control) were calculated.
The relative values compared to the sham were calculated and shown in Table 7, which show effect of the compound of examples on tail-flick test in Mice.

corneally kindled rats = assay: Corneal kindling (CK) rat model; type: in vivo, Sprague-Dawley rats; settings: po
Excerpt: Male Sprague-Dawley rats (purchased from Orient Bio Inc. Korea) of body weight 85-100 g were used for these studies. The MES test using the electroshock seizure apparatus designed by Rodent Shocker Type221 (Hugo Sachs Elektronik, Germany). The kindled rat models were electrically stimulated (8 mA, 60 Hz, 2 s, corneal electrodes) twice daily for 21 days until stage 5 seizure scored by Racine's scale (Racine, 1972) were evoked. The kindled rats were fasted and adapted to test condition, for at least 1 hour before the administration of test material. The drugs were administered orally (p.o.) in a volume of 4 μl/g body weight. The corneally kindled rat model test is a model for generalized […] seizures or bipolar disorder and identifies the compound which prevents seizure or bipolar disorder spread. The shock level was set at 8 mA, 60 Hz and the duration was set at 2 s. A drop of 0.9% saline was placed in each eye, the electrodes were placed over the eyes, and the shock was administered immediately. Pharmacological effects of the test materials were evaluated to compare the test groups (n=6) with a control group (n=6). Control group was administrated vehicle, only. The peak time was determined by administration test material's random dose for 0.5, 1, 2, 4 hour. The time that the most protect was defined peak time and ED50 was determined by other dose administration at peak time. […]

`NC(=O)O[C@H]1CCc2cccc(Cl)c2[C@H]1O` [Example 2, (1R, 2S)-8-chloro-1-hydroxy-1,2,3,4-tetrahydronaphthalen-2-yl carbamate] was tested. Which response vs control in vivo at 50 mg/kg [1] did it give?
Its response vs control in vivo at 50 mg/kg is 23.2%.

And the ED50 [2]?
The ED50 was 41 mg/kg.

What about the ED50 [3] of the same compound?
The ED50 was 11.6 mg/kg.

What about the ED50 [4] of the same compound?
Its ED50 is 26.6 mg/kg.

And the ED50 ([5]; Rattus norvegicus, ip)?
The ED50 was 39.7 mg/kg.

And the ED50 [6]?
The ED50 was 50 mg/kg.

And the “PIC(ip) efficacy %” value [7]?
Its value is 50 (66.6%).

How did the response vs control in vivo at 50 mg/kg [1] turn out when `NC(=O)O[C@H]1Cc2cccc(Cl)c2[C@H]1O` [Example 52, (1R, 2S)-7-chloro-1-hydroxy-2,3-dihydro-1H-inden-2-yl carbamate] was run?
Its response vs control in vivo at 50 mg/kg is 34.7%.

And the ED50 (ICR mice on hot plate)?
The ED50 was 119 mg/kg.

What about the “Tail-flick test Dose” value [8] of the same compound?
Its value is >200 mg/kg.

What about the ED50 [2] of the same compound?
The ED50 was 24.3 mg/kg.

What about the ED50 [3] of the same compound?
The ED50 was 10.9 mg/kg.

And the “scPTZ test (ip) efficacy %” value ([5]; dose 100 mg/kg)?
Its value is 100 (33.3%,.

And the ED50 [6]?
Its ED50 is 63 mg/kg.

What does the source list for `NC(=O)O[C@@H]1Cc2cc(Cl)cc(Cl)c2[C@@H]1O` [Example 59, (1S, 2R)-5,7-dichloro-1-hydroxy-2,3-dihydro-1H-inden-2-yl carbamate]?
ED50 [2]: 56.5 mg/kg; ED50 (corneally kindled rats): 21.4 mg/kg
